From patent publication US20250236639A1, “NEUROACTIVE STEROIDS AND COMPOSITIONS THEREOF” (Sage Therapeutics, Inc., priority 2019, published 2025)

Target: GABAA receptor
Experiment: Steroid inhibition of [35S]-TBPS binding, rat brain cortical membranes
Details: 3 nM [35S]-TBPS, in the presence of 5 mM GABA
Protocol: [^35S]-t-Butylbicyclophosphorothionate (TBPS) binding assays using rat brain cortical membranes in the presence of 5 mM GABA has been described (Gee et al, J. Pharmacol. Exp. Ther. 1987, 241, 346-353; Hawkinson et al, Mol. Pharmacol. 1994, 46, 977-985; Lewin, A. H et al., Mol. Pharmacol. 1989, 35, 189-194).
Briefly, cortices are rapidly removed following decapitation of carbon dioxide-anesthetized Sprague-Dawley rats (200-250 g). The cortices are homogenized in 10 volumes of ice-cold 0.32 M sucrose using a glass/teflon homogenizer and centrifuged at 1500×g for 10 min at 4° C. The resultant supernatants are centrifuged at 10,000×g for 20 min at 4° C. to obtain the P2 pellets. The P2 pellets are resuspended in 200 mM NaCl/50 mM Na—K phosphate pH 7.4 buffer and centrifuged at 10,000×g for 10 min at 4° C. This washing procedure is repeated twice and the pellets are resuspended in 10 volumes of buffer. Aliquots ([…]) of the membrane suspensions are incubated with 3 nM [^35S]-TBPS and […] aliquots of test drug dissolved in dimethyl sulfoxide (DMSO) (final 0.5%) in the presence of 5 mM GABA. The incubation is brought to a final volume of 1.0 mL with buffer. Nonspecific binding is determined in the presence of […] and ranged from 15 to 25%. Following a 90 min incubation at room temp, the assays are terminated by filtration through glass fiber filters (Schleicher and Schuell No. 32) using a cell harvester (Brandel) and rinsed three times with ice-cold buffer. Filter bound radioactivity is measured by liquid scintillation spectrometry. Non-linear curve fitting of the overall data for each drug averaged for each concentration is done using Prism (GraphPad). […] The concentration of test compound producing 50% inhibition (IC50) of specific binding and the maximal extent of inhibition (Imax) are determined for the individual experiments with the same model used for the overall data and then the means±SEM.s of the individual experiments are calculated.
Various compounds are or can be screened to determine their potential as modulators of [^35S]-TBPS binding in vitro. These assays are or can be performed in accordance with the above

Compound | IC50
COC[C@@H]1C[C@H]2[C@H](CC[C@@H]3[C@@H]2CC[C@@]2(C)[C@H]3CC[C@@H]2[C@](C)(O)Cn2cc(C#N)cn2)C[C@]1(C)O [Compound 58A, 1-((S)-2-hydroxy-2-((2S,3S,5R,8R,9R,10S,13S,14S,17S)-3-hydroxy-2-(methoxymethyl)-3,13-dimethylhexadecahydro-1H-cyclopenta[a]phenanthren-17-yl)propyl)-1H-pyrazole-4-carbonitrile] | < 100 nM
COC[C@H]1C[C@H]2[C@H](CC[C@@H]3[C@@H]2CC[C@@]2(C)[C@H]3CC[C@@H]2[C@](C)(O)Cn2cc(C#N)cn2)C[C@]1(C)O [Compound 58, 1-((S)-2-hydroxy-2-((2R,3S,5R,8R,9R,10S,13S,14S,17S)-3-hydroxy-2-(methoxymethyl)-3,13-dimethylhexadecahydro-1H-cyclopenta[a]phenanthren-17-yl)propyl)-1H-pyrazole-4-carbonitrile] | < 100 nM
CCOC[C@@]1(O)CC[C@H]2[C@H](CC[C@@H]3[C@@H]2CC[C@@]2(C)[C@H]3CC[C@@H]2[C@@](C)(O)Cn2cc(C#N)cn2)C1 [Compound 16, 1-((R)-2-((3R,5R,8R,9R,10S,13S,14S,17S)-3-(ethoxymethyl)-3-hydroxy-13-methylhexadecahydro-1H-cyclopenta[a]phenanthren-17-yl)-2-hydroxypropyl)-1H-pyrazole-4-carbonitrile] | < 100 nM
CC(=O)c1cnn(C[C@@](C)(O)[C@H]2CC[C@H]3[C@@H]4CC[C@@H]5C[C@](C)(O)CC[C@@H]5[C@H]4CC[C@@]32C)c1 [Compound 31, 1-(1-((S)-2-hydroxy-2-((3R,5R,8R,9R,10S,13S,14S,17S)-3-hydroxy-3,13-dimethylhexadecahydro-1H-cyclopenta[a]phenanthren-17-yl)propyl)-1H-pyrazol-4-yl)ethanone] | < 100 nM
COC[C@@]1(O)CC[C@H]2[C@H](CC[C@@H]3[C@@H]2CC[C@]2(C)[C@@H](C(C)(C)Cn4cc(C#N)cn4)CC[C@@H]32)C1 [Compound 56, 1-(2-((3R,5R,8R,9R,10S,13S,14S,17S)-3-hydroxy-3-(methoxymethyl)-13-methylhexadecahydro-1H-cyclopenta[a]phenanthren-17-yl)-2-methylpropyl)-1H-pyrazole-4-carbonitrile] | < 100 nM
C[C@@H]1C[C@H]2[C@H](CC[C@@H]3[C@@H]2CC[C@@]2(C)[C@H]3CC[C@@H]2[C@](C)(O)Cn2cc(C#N)cn2)C[C@]1(C)O [Compound 52, 1-((S)-2-hydroxy-2-((2R,3S,5R,8R,9R,10S,13S,14S,17S)-3-hydroxy-2,3,13-trimethylhexadecahydro-1H-cyclopenta[a]phenanthren-17-yl)propyl)-1H-pyrazole-4-carbonitrile] | < 100 nM
CCC[C@@]1(O)CC[C@H]2[C@H](CC[C@@H]3[C@@H]2CC[C@@]2(C)[C@H]3CC[C@@H]2[C@@](C)(O)Cn2ccc(C#N)n2)C1 [Compound 23, 1-((R)-2-hydroxy-2-((3R,5R,8R,9R,10S,13S,14S,17S)-3-hydroxy-13-methyl-3-propylhexadecahydro-1H-cyclopenta[a]phenanthren-17-yl)propyl)-1H-pyrazole-3-carbonitrile] | 100 to 1000 nM
C[C@@H]1C[C@H]([C@@](C)(O)Cn2cc(C#N)cn2)[C@@]2(C)CC[C@H]3[C@@H](CC[C@@H]4C[C@](C)(O)CC[C@@H]43)[C@H]12 [Compound 49, 1-((R)-2-hydroxy-2-((3R,5R,8R,9R,10S,13S,14S,15R,17S)-3-hydroxy-3,13,15-trimethylhexadecahydro-1H-cyclopenta[a]phenanthren-17-yl)propyl)-1H-pyrazole-4-carbonitrile] | < 100 nM
CC[C@H]1C[C@H]2[C@H](CC[C@@H]3[C@@H]2CC[C@@]2(C)[C@H]3CC[C@@H]2[C@@](C)(O)Cn2cc(C#N)cn2)C[C@]1(C)O [Compound 35, 1-((R)-2-((2S,3S,5R,8R,9R,10S,13S,14S,17S)-2-ethyl-3-hydroxy-3,13-dimethylhexadecahydro-1H-cyclopenta[a]phenanthren-17-yl)-2-hydroxypropyl)-1H-pyrazole-4-carbonitrile] | 100 to 1000 nM
CCC[C@@]1(O)CC[C@H]2[C@@H](CC[C@@H]3[C@@H]2CC[C@@]2(C)[C@H]3CC[C@@H]2[C@@](C)(O)Cn2cc(C#N)cn2)C1 [Compound 10, 1-((R)-2-hydroxy-2-((3R,5S,8R,9R,10S,13S,14S,17S)-3-hydroxy-13-methyl-3-propylhexadecahydro-1H-cyclopenta[a]phenanthren-17-yl)propyl)-1H-pyrazole-4-carbonitrile] | ≥ 1000 nM
CCC[C@@]1(O)CC[C@@]2(C)[C@@H](CC[C@@H]3[C@@H]2CC[C@@]2(C)[C@H]3CC[C@@H]2[C@](C)(O)Cn2cc(C#N)cn2)C1 [Compound 17, 1-((S)-2-hydroxy-2-((3R,5S,8R,9S,10S,13S,14S,17S)-3-hydroxy-10,13-dimethyl-3-propylhexadecahydro-1H-cyclopenta[a]phenanthren-17-yl)propyl)-1H-pyrazole-4-carbonitrile] | 100 to 1000 nM
CCC[C@@]1(O)CC[C@H]2[C@H](CC[C@@H]3[C@@H]2CC[C@@]2(C)[C@H]3CC[C@@H]2[C@](C)(O)Cn2ccc(C#N)n2)C1 [Compound 22, 1-((S)-2-hydroxy-2-((3R,5R,8R,9R,10S,13S,14S,17S)-3-hydroxy-13-methyl-3-propylhexadecahydro-1H-cyclopenta[a]phenanthren-17-yl)propyl)-1H-pyrazole-3-carbonitrile] | < 100 nM
CO[C@@H]1C[C@H]2[C@H](CC[C@@H]3[C@@H]2CC[C@@]2(C)[C@H]3CC[C@@H]2[C@](C)(O)Cn2cc(C#N)cn2)C[C@]1(C)O [Compound 60, 1-((S)-2-hydroxy-2-((2R,3S,5R,8R,9R,10S,13S,14S,17S)-3-hydroxy-2-methoxy-3,13-dimethylhexadecahydro-1H-cyclopenta[a]phenanthren-17-yl)propyl)-1H-pyrazole-4-carbonitrile] | < 100 nM
CC[C@]12CC[C@@](C)(O)C[C@H]1CC[C@H]1[C@@H]3CC[C@H]([C@@](C)(O)Cn4cc(C#N)cn4)[C@@]3(C)CC[C@@H]12 [Compound 4, 1-((R)-2-((3R,5R,8S,9S,10S,13S,14S,17S)-10-ethyl-3-hydroxy-3,13-dimethylhexadecahydro-1H-cyclopenta[a]phenanthren-17-yl)-2-hydroxypropyl)-1H-pyrazole-4-carbonitrile] | < 100 nM
CC[C@]12CC[C@](O)(COC)C[C@H]1CC[C@H]1[C@@H]3CC[C@H]([C@@](C)(O)Cn4cc(C#N)cn4)[C@@]3(C)CC[C@@H]12 [Compound 43, 1-((R)-2-((3R,5R,8S,9S,10S,13S,14S,17S)-10-ethyl-3-hydroxy-3-(methoxymethyl)-13-methylhexadecahydro-1H-cyclopenta[a]phenanthren-17-yl)-2-hydroxypropyl)-1H-pyrazole-4-carbonitrile] | < 100 nM
CC[C@H]1C[C@H]2[C@H](CC[C@@H]3[C@@H]2CC[C@@]2(C)[C@H]3CC[C@@H]2[C@](C)(O)Cn2cc(C#N)cn2)C[C@]1(C)O [Compound 34, 1-((S)-2-((2S,3S,5R,8R,9R,10S,13S,14S,17S)-2-ethyl-3-hydroxy-3,13-dimethylhexadecahydro-1H-cyclopenta[a]phenanthren-17-yl)-2-hydroxypropyl)-1H-pyrazole-4-carbonitrile] | < 100 nM
CO[C@@H]1C[C@H]2[C@H](CC[C@@H]3[C@@H]2CC[C@@]2(C)[C@H]3CC[C@@H]2[C@@](C)(O)Cn2cc(C#N)cn2)C[C@]1(C)O [Compound 61, 1-((R)-2-hydroxy-2-((2R,3S,5R,8R,9R,10S,13S,14S,17S)-3-hydroxy-2-methoxy-3,13-dimethylhexadecahydro-1H-cyclopenta[a]phenanthren-17-yl)propyl)-1H-pyrazole-4-carbonitrile] | 100 to 1000 nM
CCC[C@@]1(O)CC[C@H]2[C@@H](CC[C@@H]3[C@@H]2CC[C@@]2(C)[C@H]3CC[C@@H]2[C@](C)(O)Cn2cc(C#N)cn2)C1 [Compound 9, 1-((S)-2-hydroxy-2-((3R,5S,8R,9R,10S,13S,14S,17S)-3-hydroxy-13-methyl-3-propylhexadecahydro-1H-cyclopenta[a]phenanthren-17-yl)propyl)-1H-pyrazole-4-carbonitrile] | 100 to 1000 nM
